Measurements as given in ChEMBL document CHEMBL3885861, “Open TG-GATES”.

Species: Rattus norvegicus
Assay: Open TG-GATES - Regimen: Daily Repeat
Type: toxicity, organism-based, Sprague-Dawley
Set-up: regimen Daily Repeat, gender Male, age 6 weeks
Conditions: in vivo, po, 100 mg/kg, route gavage, dose level Low; for APTT / Bas / Eos / Fbg / Hb / Ht / Lym / MCH / MCHC / MCV / Mono / Neu / PT / Plat / RBC / Ret / WBC: tissue Blood; for KIDNEY_L / KIDNEY_R / KIDNEY_TOTAL: tissue Kidney; for LIVER: tissue Liver; for A/G / ALP / ALT / AST / BUN / CRE / Ca / Cl / DBIL / GLC / IP / K / LDH / Na / PL / RALB / TBIL / TC / TG / TP / gamma-GTP: tissue Plasma

CC(=O)[C@@]1(O)CC[C@H]2[C@@H]3C=C(Cl)C4=CC(=O)CC[C@]4(C)[C@H]3CC[C@@]21C [CHLORMADINONE]
TERMINAL_BW (72 h, time 3 day): 229.4 g | APTT (72 h, time 3 day): 26.3 s | Bas (72 h, time 3 day): 0% | Eos (72 h, time 3 day): 1% | Fbg (72 h, time 3 day): 311.6 mg/dL | Hb (72 h, time 3 day): 14.1 g/dL | Ht (72 h, time 3 day): 42.6% | Lym (72 h, time 3 day): 80.4% | MCH (72 h, time 3 day): 20.1 pg | MCHC (72 h, time 3 day): 33.1% | MCV (72 h, time 3 day): 60.6 fL | Mono (72 h, time 3 day): 2.4% | Neu (72 h, time 3 day): 15.6% | PT (72 h, time 3 day): 15.3 s | Plat (72 h, time 3 day): 122.1 x10_4/uL | RBC (72 h, time 3 day): 702.6 x10_4/ul | Ret (72 h, time 3 day): 5.8% | WBC (72 h, time 3 day): 113 x10_2/uL | KIDNEY_L (72 h, time 3 day): 1 g | KIDNEY_R (72 h, time 3 day): 1 g | KIDNEY_TOTAL (72 h, time 3 day): 2 g | LIVER (72 h, time 3 day): 10.5 g | A/G (72 h, time 3 day): 1.3 | ALP (72 h, time 3 day): 1589 IU/L | ALT (72 h, time 3 day): 54 IU/L | AST (72 h, time 3 day): 72.8 IU/L | BUN (72 h, time 3 day): 15.8 mg/dL | CRE (72 h, time 3 day): 0.2 mg/dL | Ca (72 h, time 3 day): 10.7 mg/dL | Cl (72 h, time 3 day): 106.2 meq/L | DBIL (72 h, time 3 day): 0 mg/dL | GLC (72 h, time 3 day): 192.4 mg/dL | IP (72 h, time 3 day): 7.4 mg/dL | K (72 h, time 3 day): 4.5 meq/L | LDH (72 h, time 3 day): 171.4 IU/L | Na (72 h, time 3 day): 141.6 meq/L | PL (72 h, time 3 day): 160.2 mg/dL | RALB (72 h, time 3 day): 3.1 g/dL | TBIL (72 h, time 3 day): 0.006 mg/dL | TC (72 h, time 3 day): 74 mg/dL | TG (72 h, time 3 day): 129.4 mg/dL | TP (72 h, time 3 day): 5.5 g/dL | gamma-GTP (72 h, time 3 day): 1.6 IU/L | TERMINAL_BW ([…], time 7 day): 252.1 g | TERMINAL_BW ([…], time 14 day): 293.5 g | TERMINAL_BW ([…], time 28 day): 362.8 g | APTT ([…], time 7 day): 27.7 s | Bas ([…], time 7 day): 0% | Eos ([…], time 7 day): 1% | Fbg ([…], time 7 day): 343.2 mg/dL | Hb ([…], time 7 day): 14.5 g/dL | Ht ([…], time 7 day): 43.2% | Lym ([…], time 7 day): 84% | MCH ([…], time 7 day): 20.2 pg | MCHC ([…], time 7 day): 33.6% | MCV ([…], time 7 day): 60.1 fL | Mono ([…], time 7 day): 2.2% | Neu ([…], time 7 day): 12% | PT ([…], time 7 day): 15.2 s | Plat ([…], time 7 day): 133.1 x10_4/uL | RBC ([…], time 7 day): 720.2 x10_4/ul | Ret ([…], time 7 day): 4.2% | WBC ([…], time 7 day): 118.1 x10_2/uL | APTT ([…], time 14 day): 27.9 s | Bas ([…], time 14 day): 0% | Eos ([…], time 14 day): 0.8% | Fbg ([…], time 14 day): 327.6 mg/dL | Hb ([…], time 14 day): 14.8 g/dL | Ht ([…], time 14 day): 43.9% | Lym ([…], time 14 day): 82% | MCH ([…], time 14 day): 19.5 pg | MCHC ([…], time 14 day): 33.8% | MCV ([…], time 14 day): 57.6 fL | Mono ([…], time 14 day): 2% | Neu ([…], time 14 day): 14.6% | PT ([…], time 14 day): 15.2 s | Plat ([…], time 14 day): 103.8 x10_4/uL | RBC ([…], time 14 day): 762.8 x10_4/ul | Ret ([…], time 14 day): 3.6% | WBC ([…], time 14 day): 100.2 x10_2/uL | APTT ([…], time 28 day): 27.1 s | Bas ([…], time 28 day): 0% | Eos ([…], time 28 day): 1% | Fbg ([…], time 28 day): 303.4 mg/dL | Hb ([…], time 28 day): 15.5 g/dL | Ht ([…], time 28 day): 45.1% | Lym ([…], time 28 day): 84.8% | MCH ([…], time 28 day): 19.2 pg | MCHC ([…], time 28 day): 34.4% | MCV ([…], time 28 day): 55.7 fL | Mono ([…], time 28 day): 1.6% | Neu ([…], time 28 day): 11.4% | PT ([…], time 28 day): 14.9 s | Plat ([…], time 28 day): 95 x10_4/uL | RBC ([…], time 28 day): 809 x10_4/ul | Ret ([…], time 28 day): 2.2% | WBC ([…], time 28 day): 106.1 x10_2/uL | KIDNEY_L ([…], time 7 day): 1.1 g | KIDNEY_R ([…], time 7 day): 1.1 g | KIDNEY_TOTAL ([…], time 7 day): 2.2 g | KIDNEY_L ([…], time 14 day): 1.1 g | KIDNEY_R ([…], time 14 day): 1.1 g | KIDNEY_TOTAL ([…], time 14 day): 2.3 g | KIDNEY_L ([…], time 28 day): 1.3 g | KIDNEY_R ([…], time 28 day): 1.3 g | KIDNEY_TOTAL ([…], time 28 day): 2.5 g | LIVER ([…], time 7 day): 11.1 g | LIVER ([…], time 14 day): 12 g | LIVER ([…], time 28 day): 14.2 g | A/G ([…], time 7 day): 1.2 | ALP ([…], time 7 day): 1694.8 IU/L | ALT ([…], time 7 day): 46.4 IU/L | AST ([…], time 7 day): 74.6 IU/L | BUN ([…], time 7 day): 16.2 mg/dL | CRE ([…], time 7 day): 0.2 mg/dL | Ca ([…], time 7 day): 10.7 mg/dL | Cl ([…], time 7 day): 106.8 meq/L | DBIL ([…], time 7 day): 0 mg/dL | GLC ([…], time 7 day): 185.4 mg/dL | IP ([…], time 7 day): 7.2 mg/dL | K ([…], time 7 day): 4.2 meq/L | LDH ([…], time 7 day): 148.4 IU/L | Na ([…], time 7 day): 140.6 meq/L | PL ([…], time 7 day): 155.2 mg/dL | RALB ([…], time 7 day): 3.1 g/dL | TBIL ([…], time 7 day): 0.002 mg/dL | TC ([…], time 7 day): 67.4 mg/dL | TG ([…], time 7 day): 200.6 mg/dL | TP ([…], time 7 day): 5.7 g/dL | gamma-GTP ([…], time 7 day): 2 IU/L | A/G ([…], time 14 day): 1.2 | ALP ([…], time 14 day): 1379.4 IU/L | ALT ([…], time 14 day): 44.8 IU/L | AST ([…], time 14 day): 72.8 IU/L | BUN ([…], time 14 day): 17.2 mg/dL | CRE ([…], time 14 day): 0.2 mg/dL | Ca ([…], time 14 day): 10.3 mg/dL | Cl ([…], time 14 day): 107.8 meq/L | DBIL ([…], time 14 day): 0 mg/dL | GLC ([…], time 14 day): 183.8 mg/dL | IP ([…], time 14 day): 6.5 mg/dL | K ([…], time 14 day): 4.2 meq/L | LDH ([…], time 14 day): 144.4 IU/L | Na ([…], time 14 day): 142.2 meq/L | PL ([…], time 14 day): 142.6 mg/dL | RALB ([…], time 14 day): 3.1 g/dL | TBIL ([…], time 14 day): 0.006 mg/dL | TC ([…], time 14 day): 69.2 mg/dL | TG ([…], time 14 day): 142.2 mg/dL | TP ([…], time 14 day): 5.7 g/dL | gamma-GTP ([…], time 14 day): 2 IU/L | A/G ([…], time 28 day): 1.1 | ALP ([…], time 28 day): 1170.6 IU/L | ALT ([…], time 28 day): 46.8 IU/L | AST ([…], time 28 day): 66.6 IU/L | BUN ([…], time 28 day): 18.8 mg/dL | CRE ([…], time 28 day): 0.2 mg/dL | Ca ([…], time 28 day): 10.5 mg/dL | Cl ([…], time 28 day): 105.8 meq/L | DBIL ([…], time 28 day): 0 mg/dL | GLC ([…], time 28 day): 192.8 mg/dL | IP ([…], time 28 day): 6.5 mg/dL | K ([…], time 28 day): 4.2 meq/L | LDH ([…], time 28 day): 142 IU/L | Na ([…], time 28 day): 142 meq/L | PL ([…], time 28 day): 155.4 mg/dL | RALB ([…], time 28 day): 3.1 g/dL | TBIL ([…], time 28 day): 0.006 mg/dL | TC ([…], time 28 day): 73.2 mg/dL | TG ([…], time 28 day): 178 mg/dL | TP ([…], time 28 day): 6 g/dL | gamma-GTP ([…], time 28 day): 2.2 IU/L
